The values below come from patent US20220347175A1, “PYRIDAZINONE DERIVATIVE” (Sumitomo Dainippon Pharma Co., Ltd., priority 2018, published 2022).

Assay [1] concerns the target T1, human Nav1.1 (Homo sapiens, UniProt P35498).
T1 construct: host or cells: HEK293
The experiment in a line: Amplification of Nav1.1-derived voltage-dependent sodium current (Nav1.1 current), cell line stably expressing human Nav1.1, automated patch clamp. It counts as cell-based. The following applies: for activation at 10 µM: read-out: Nav1.1 current amplification rate (%). The essentials:
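Automated whole-cell voltage-clamp recordings used HEK293 cells stably expressing human Nav1.1, keeping only cells with >500 pA current, with currents evoked by ramp voltage. Compounds were applied in extracellular fluid with 1% DMSO, and amplification (%) was computed from peak current or AUC after versus before addition.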
Background: The patch-clamp technique gives a direct electrical read-out from membranes.

Assay [2] has as its target T2, human Nav1.5 (Homo sapiens, UniProt Q14524).
T2 construct: expressed in transfected cells; host or cells: CHO-K1 (T-REx System, ThermoFisher Scientific)
Nature of the assay: Amplification of Nav1.5-derived voltage-dependent sodium current (Nav1.5 current), cell line stably expressing human Nav1.5, automated patch clamp. The format is cell-based. To be noted: for activation at 10 µM: read-out: Nav1.5 current amplification rate (%). The procedure:
Test 2: Evaluation of the Amplification in Nav1.5-Derived Voltage-Dependent Sodium Current (Nav1.5 Current) by Using a Cell Line Stably Expressing Human Nav1.5
A CHO-K1 cell line (Chinese hamster ovary) stably expressing human Nav1.5 (Gene Bank Accession No: P000326.2) was obtained by using purchased T-Rex System (ThermoFisher Scientific, USA), and used for the present test. The effect of test compounds on the amplification of Nav1.5 current was evaluated by using a cell line stably expressing human Nav1.5 and HTS automated patch clamp system, similarly in the method using Nav1.1. In other words, test compounds were added in an extracellular fluid which contained 1% DMSO and 500 nmol/L Tetrodotoxin (TTX), and evaluated as a change of the peak value of Nav1.5 current and the area under the curve (AUC). The induction and the measurement of Nav1.5 current, the pharmacologic effect on Nav1.5 current, and a method for pharmacological evaluation were carried out by the same method as in Nav1.1.

Where [3] appears, read: compound 1 μmol/L, HEK293 stably expressing human Nav1.1.
The mark [4] stands for this setting: compound 1 μmol/L, CHO-K1 stably expressing human Nav1.5.
[5] abbreviates: 10 μmol/L compound, change of the area under the curve of Nav1.1 current (Test Result 1).
Where [6] appears, read: 10 μmol/L compound, change of the area under the curve of Nav1.5 current (Test Result 1).
The mark [7] stands for this setting: compound 3 μmol/L, HEK293 stably expressing human Nav1.1.
Setting [8] is: compound 3 μmol/L, CHO-K1 stably expressing human Nav1.5.

T2 sequence (Q14524 1-2015 isoform Q14524-2): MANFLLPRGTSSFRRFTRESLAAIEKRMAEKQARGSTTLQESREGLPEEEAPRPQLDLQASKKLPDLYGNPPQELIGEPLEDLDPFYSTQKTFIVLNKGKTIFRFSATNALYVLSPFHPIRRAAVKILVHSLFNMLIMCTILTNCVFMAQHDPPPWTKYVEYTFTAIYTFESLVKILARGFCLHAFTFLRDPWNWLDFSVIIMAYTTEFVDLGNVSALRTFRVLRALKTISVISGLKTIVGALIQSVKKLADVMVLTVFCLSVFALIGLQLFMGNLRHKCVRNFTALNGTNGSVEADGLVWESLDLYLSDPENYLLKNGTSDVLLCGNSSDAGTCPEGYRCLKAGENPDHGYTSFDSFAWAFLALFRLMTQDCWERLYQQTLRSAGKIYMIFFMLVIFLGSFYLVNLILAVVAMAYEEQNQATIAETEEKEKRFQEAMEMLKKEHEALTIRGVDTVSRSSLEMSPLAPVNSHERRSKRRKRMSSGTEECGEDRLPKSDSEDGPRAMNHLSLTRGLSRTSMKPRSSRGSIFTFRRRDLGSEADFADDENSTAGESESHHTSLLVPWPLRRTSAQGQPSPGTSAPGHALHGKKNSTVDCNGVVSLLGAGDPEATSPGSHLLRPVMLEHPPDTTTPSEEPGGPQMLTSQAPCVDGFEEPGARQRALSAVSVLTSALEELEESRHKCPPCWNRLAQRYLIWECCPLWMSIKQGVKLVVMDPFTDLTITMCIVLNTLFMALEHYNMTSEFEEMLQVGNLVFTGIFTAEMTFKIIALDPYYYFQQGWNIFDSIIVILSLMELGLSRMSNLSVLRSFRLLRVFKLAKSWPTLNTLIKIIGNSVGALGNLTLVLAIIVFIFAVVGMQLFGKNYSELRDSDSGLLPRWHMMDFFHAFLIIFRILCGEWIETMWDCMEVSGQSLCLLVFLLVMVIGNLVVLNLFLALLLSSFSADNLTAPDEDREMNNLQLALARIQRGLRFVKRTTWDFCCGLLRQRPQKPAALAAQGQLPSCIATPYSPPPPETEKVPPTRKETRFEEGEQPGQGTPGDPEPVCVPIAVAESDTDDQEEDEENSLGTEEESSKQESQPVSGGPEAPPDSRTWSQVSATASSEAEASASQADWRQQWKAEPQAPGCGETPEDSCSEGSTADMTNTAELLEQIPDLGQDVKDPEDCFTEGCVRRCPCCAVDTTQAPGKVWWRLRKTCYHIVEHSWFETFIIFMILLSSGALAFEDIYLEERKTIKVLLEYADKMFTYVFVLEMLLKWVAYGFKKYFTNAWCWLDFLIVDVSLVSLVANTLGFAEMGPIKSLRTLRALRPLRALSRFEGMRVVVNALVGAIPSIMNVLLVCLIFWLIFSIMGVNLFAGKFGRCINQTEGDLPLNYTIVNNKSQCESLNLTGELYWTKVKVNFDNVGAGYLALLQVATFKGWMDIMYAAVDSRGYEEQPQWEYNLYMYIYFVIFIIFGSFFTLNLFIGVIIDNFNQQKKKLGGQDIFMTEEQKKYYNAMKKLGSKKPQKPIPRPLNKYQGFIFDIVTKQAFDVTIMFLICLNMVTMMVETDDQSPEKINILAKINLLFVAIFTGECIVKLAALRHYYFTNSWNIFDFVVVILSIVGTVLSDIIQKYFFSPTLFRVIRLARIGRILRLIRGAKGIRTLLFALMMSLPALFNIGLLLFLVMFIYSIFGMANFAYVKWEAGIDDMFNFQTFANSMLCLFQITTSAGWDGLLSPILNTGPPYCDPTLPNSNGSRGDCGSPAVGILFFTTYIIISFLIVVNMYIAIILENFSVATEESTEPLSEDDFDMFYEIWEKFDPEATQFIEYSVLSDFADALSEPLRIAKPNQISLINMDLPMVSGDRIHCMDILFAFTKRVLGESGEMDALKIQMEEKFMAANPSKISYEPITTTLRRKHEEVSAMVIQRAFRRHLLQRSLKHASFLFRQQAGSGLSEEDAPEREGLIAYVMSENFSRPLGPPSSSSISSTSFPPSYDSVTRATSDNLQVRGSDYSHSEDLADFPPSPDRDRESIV

In the case of `CC1CC=C(c2ccc(=O)n(CC(=O)Nc3ccn4ncnc4c3)n2)CC1` (racemic) [Example 330], the “Nav1.1 current amplification rate (%)” value in assay [1] (setting [3]) came to 191%. Also, the “Nav1.5 current amplification rate (%)” value in assay [2] (setting [4]) is on record as 47%.
As for `CC1CC=C(c2ccc(=O)n(CC(=O)N3CC=C(c4cccnc4)CC3)n2)CC1` (stereo not shown) [Example 402], the “Nav1.1 current amplification rate (%)” value in assay [1] (setting [5]) is listed as 323%. For the same compound, the “Nav1.5 current amplification rate (%)” value in assay [2] (setting [6]) is reported as 21%.
Taken in the same sequence, the figures for `Cc1noc2ccc(NC(=O)Cn3nc(C4=CCC(C)CC4)ccc3=O)cc12` (stereo not shown) [Example 423] were 11% and 4%.
Taken in the same sequence, the figures for `O=C(Cn1nc(C2=CCC(C(F)(F)F)CC2)ccc1=O)N1CCN(c2cncc(F)c2)CC1` (racemic) [Example 487] were 190% and 109%.
Taken in the same sequence, the figures for `CC1CC=C(c2ccc(=O)n(CC(=O)N3CC=C(c4nccc5occc45)CC3)n2)CC1` (stereo not shown) [Example 404] were 42% and 6%.
With `COC1CN(Cc2nc3cc(NC(=O)Cn4nc(C5=CCC(C)CC5)ccc4=O)ccc3o2)C1` (racemic) [Example 332], the “Nav1.1 current amplification rate (%)” value in assay [1] (setting [7]) is 15%. In addition, in assay [2] (setting [8]), the “Nav1.5 current amplification rate (%)” value came to 9%.
As for `O=C(Cn1nc(N2CC3C(C2)C3(F)F)ccc1=O)Nc1ccc2ocnc2c1` (stereo not shown) [Example 162], the activation at 10 µM worked out at 6% in assay [1] (setting [5]) and 0% in assay [2] (setting [6]).
On to `N#Cc1ccc(NC(=O)Cn2nc(N3CCC4(CCC4)CC3)ccc2=O)cn1` [Example 124], for which the activation at 10 µM in assay [1] (setting [5]) turned out to be 205%; in assay [2] (setting [6]), 70%.
As for `CC1CC=C(c2ccc(=O)n(CC(=O)N3CCN(c4cncc(OC(F)F)c4)CC3)n2)CC1` (stereo not shown) [Example 405], the “Nav1.1 current amplification rate (%)” value in assay [1] (setting [7]) was found to be 268%. Moreover, in assay [2] (setting [8]), the “Nav1.5 current amplification rate (%)” value is reported as 14%.
Consider `O=C(Cn1nc(N2CCCC3(CCC3)C2)ccc1=O)Nc1cccc(-c2nccs2)c1` [Example 134], for which the activation at 10 µM in assay [1] (setting [5]) is 44%; in assay [2] (setting [6]), -5%.
On the same counts, the results for `O=C(Cn1nc(N2CCC3(CCC3)CC2)ccc1=O)Nc1ccn2cnnc2c1` [Example 176] are 66% and 2%.
As to `CC1CCN(c2ccc(=O)n(CC(=O)Nc3ccnc(C#N)c3)n2)CC1` [Example 53], the “Nav1.1 current amplification rate (%)” value in assay [1] (setting [5]) is on record as 161%. The “Nav1.5 current amplification rate (%)” value in assay [2] (setting [6]) is 11%.
Take `Cc1cc(N2CCC3(CCCC3)C2)nn(CC(=O)Nc2ccc3ocnc3c2)c1=O` [Example 193]: the values for the activation at 10 µM in assay [1] (setting [5]) and in assay [2] (setting [6]) were 219% and 0%, respectively.
Turning to `CC1CC=C(c2ccc(=O)n(CC(=O)N3CCc4c(-c5ccnn5C)cccc43)n2)CC1` (racemic) [Example 251], the “Nav1.1 current amplification rate (%)” value in assay [1] (setting [7]) came out at 307%. Moreover, in assay [2] (setting [8]), the “Nav1.5 current amplification rate (%)” value amounted to 15%.
For the compound `Cc1ccc(-c2nn(CC(=O)Nc3ccn4ccnc4c3)c(=O)c(C)c2C)cc1` [Example 156], the “Nav1.1 current amplification rate (%)” value in assay [1] (setting [5]) came to 33%. Further, the “Nav1.5 current amplification rate (%)” value in assay [2] (setting [6]) is reported as 4%.
Consider `CC1(C)CC=C(c2ccc(=O)n(CC(=O)Nc3ccc4ocnc4c3)n2)CC1` [Example 445, N-(1,3-benzooxazol-5-yl)-2-[3-(4,4-dimethylcyclohex-1-en-1-yl)-6-oxopyridazin-1(6H)-yl]acetamide], for which the activation at 10 µM came to 320% in assay [1] (setting [5]) and 52% in assay [2] (setting [6]).
Consider `CC1CCN(c2ccc(=O)n(CC(=O)Nc3ccn4ccnc4c3)n2)CC1` [Example 72], for which the “Nav1.1 current amplification rate (%)” value in assay [1] (setting [5]) is recorded as 119%. The “Nav1.5 current amplification rate (%)” value in assay [2] (setting [6]) is given as 3%.
For `CC1CCN(c2ccc(=O)n(CC(=O)Nc3ccc4c(c3)NC(=O)C4)n2)CC1` [Example 86], in assay [1] (setting [5]), the “Nav1.1 current amplification rate (%)” value was determined as 73%. The “Nav1.5 current amplification rate (%)” value in assay [2] (setting [6]) turned out to be 3%.
Regarding `CC1CC=C(c2ccc(=O)n(CC(=O)Nc3ccc(C#N)nc3)n2)CC1` (racemic) [Example 360], the “Nav1.1 current amplification rate (%)” value in assay [1] (setting [3]) amounted to 200%. The “Nav1.5 current amplification rate (%)” value in assay [2] (setting [4]) is listed as 100%.
In the case of `Cc1ccc(-c2ccc(=O)n(CC(=O)N3CCc4cc(N5CCOCC5)ccc43)n2)cc1` [Example 158], the “Nav1.1 current amplification rate (%)” value in assay [1] (setting [5]) was 122%. Moreover, the “Nav1.5 current amplification rate (%)” value in assay [2] (setting [6]) worked out at 30%.
